Results on one molecule are retold here after patent US6060475A, “Substituted pyrazin-2-yl-sulphonamide-(3-pyridyl) compounds and uses thereof” (Zeneca Limited, priority 1995, dated 2000).

For test [1], the system named is Human ETA or ETB receptors. Briefly: Test A: inhibition of [125I]-Endothelin-1 binding to MEL cell membranes expressing recombinant receptor. The following applies: receptor sub-type (ETA or ETB) not given. The source says:
Test A: The endothelin receptor antagonist activity of compounds of formula I may be assessed in vitro by their ability to inhibit binding of [^125 I]-Endothelin-1 to its receptors. Human ETA or ETB receptors (sub-types of the endothelin receptor) were expressed in Mouse Erythroleukemic Cells (MEL cells) by using standard molecular techniques (for example, as described by Sambrook J., Fritsch E. F. & Maniatis T. (1989) Molecular Cloning: A Laboratory Manual, 2nd Edition, Cold Spring Harbor Press, USA). cDNA sequences encoding the human ETA and ETB receptor (Hosoda K. et al (1991), FEBS Lett., 287, 23-26 and Sakamoto A. et al, (1991), Biochem. Biophys Res. Comm., 178, 656-663) are subcloned into pBluescript vector followed by insertion into the MEL cell expression vector pEV as described by Needham et al (1992), Nuc. Acids Res., 20, 997-1003. […]
[^125 I]-Endothelin-1 binding to MEL cell membranes was measured in incubation buffer containing 50 mM Tris HCl 1 mM CaCl2, 0.05% polyoxyethylenesorbitan monolaurate, 0.1% Bovine Serum Albumin (BSA), 0.02% sodium azide pH 7.4 at 30° C. after 180 minutes incubation. […] Nonspecific binding was measured in the presence of 100 nM unlabelled Endothelin-1. […] The filter discs were punched out and counted in a gamma counter. Compounds are tested in triplicate over a range of concentrations and IC50 (or pIC50) values calculated.

Test [2] concerns pressor response induced by intravenously-administered proendothelin-1. The experiment in a line: Test D: antagonism of pressor response to intravenous proendothelin-1 in conscious rat after oral dosing. The format is in vivo. The note with it: rats, dosed orally at 3 mg/kg, determined one hour after administration, n=5, 30 mmHg change level. An excerpt:
Test D: This in vivo test involves the measurement of the antagonist effect of the test compound against the pressor response induced by intravenously-administered proendothelin-1 in a conscious rat preparation.
Male rats (260-290 g) are anaesthetised with Saffan administered via the tail vein. The right jugular vein and carotid artery are isolated and catheters filled with heparin implanted. These are exteriorised at the back of the neck using a metal trochar and the neck incision closed with autoclips. Rats are housed individually with free access to food and water during the recovery phase. Later in the day, food is removed and the rats are fasted overnight with free access to water. The following day the rats are placed in perspex restraining tubes and the arterial catheter drained and connected to a pressure transducer for measurement of mean arterial pressure. Following a ten minute stabilization period, proendothelin-1 (usually 0.3-1.0 nmol kg^-1) is administered cumulatively until a pressor response of 30 mmHg is achieved. The animals are then returned to their cages and allowed to recover for 2 hours. The test compound is administered orally (by gavage) at a known time point during the recovery period. […] Endothelin receptor antagonism is quantified by calculating dose ratio shifts at the 30 mmHg change level.

As to `COc1nc(C)cnc1NS(=O)(=O)c1cccnc1-c1ccc(OC(C)C)cc1` [Example 3, 2-(4-isopropoxyphenyl)-N-(3-methoxy-5-methylpyrazin-2-yl)pyridine-3-sulphonamide], the “pIC50 in Test A” value in test [1] worked out at 8.6. The “mean dose ratio shift on the pressor response to proendothelin-1” value in test [2] worked out at 2.93.
